As usually defined, the IC50 is the concentration that gives 50% inhibition.

One assay concerns DBA/2 mice. Briefly: Audiogenic seizure (anticonvulsant) test in DBA/2 mice. Format: in vivo. Conditions: Mus musculus, intravenous, sound-induced tonic seizures, tested 15 or 45 minutes after injection, read-out: DBA/2 mice % Protection. The procedure:
In vivo Biological Protocol:
A compound of the present invention was dissolved in water using 10% (weight/volume) Emulphor (GAF Corp., Wayne, N.J.) surfactant. Substances were administered by intravenous injection into the retro-orbital venous sinus. All testing was performed 15 minutes or 45 minutes after drug injection. All the male mice, 3-4 weeks old were obtained from Jackson Laboratories Bar Harbour, Me. Immediately before anticonvulsant testing, mice were placed upon a wire mesh, 4 inches square suspended from a steel rod. The square was slowly inverted through 180 degrees and mice observed for 30 seconds. Any mouse falling from the wire mesh was scored as ataxia.
Mice were placed into an enclosed acrylic plastic chamber (21 cm height, approximately 30 cm diameter) with a high-frequency speaker (4 cm diameter) in the center of the top lid. An audio signal generator (Protek model B-810) was used to produce a continuous sinusoidal tone that was swept linearly in frequency between 8 kHz and 16 kHz once each 10 msec. The average sound pressure level (SPL) during stimulation was approximately 100 dB at the floor of the chamber. Mice were placed within the chamber and allowed to acclimatize for 1 minute. DBA/2 mice in the vehicle-treated group responded to the sound stimulus (applied until tonic extension occurred, or for a maximum of 60 sec) with a characteristic seizure sequence consisting of wild running followed by clonic seizures, and later by tonic extension, and finally by respiratory arrest and death in 80% or more of the mice. In vehicle-treated mice, the entire sequence of seizures to respiratory arrest lasts approximately 15-20 seconds.
The incidence of all the seizure phases in the drug-treated and vehicle-treated mice was recorded, and the occurrence of tonic seizures were used for calculating anticonvulsant ED50 values by probit analysis. Mice were used only once for testing at each time and dose point.

Another assay concerns the target T1, N-type Ca2+ channel (Homo sapiens, UniProt Q00975).
T1 construct: host or cells: IMR-32 cells, differentiated with dibutyryl cAMP and bromodeoxyuridine
Briefly: Measurement of N-type Ca2+ channel blocking potencies in IMR-32 cells using the fluorescent Ca2+ indicator Indo-1. Format: cell-based. Particulars: for IC50: K+-stimulated Ca2+ flux, 5 μM nitrendipine to block L-type channels; for inhibition at 1 µM: 1 μM compound, read-out: IMR 32 % of Blockade @ 1 μM; for inhibition at 1 µM / inhibition at 10 µM: 5 μM nitrendipine; for inhibition at 10 µM: 10 μM compound, read-out: IMR 32 % of Blockade @ 10 μM. Here is the method: Measurement of N-type Ca^2+ Channel Blocking Potencies of Compounds in IMR-32 Cells Using the Fluorescent Ca^2+Indicator Indo-1
IMR-32 cells are a human tumoral cell line of neural origin. […] Calcium flux into these cells may be induced by stimulation with elevated potassium concentrations. The L-channel component of calcium flux may be blocked by adding 5 μM nitrendipine. The remaining component of calcium entry into the IMR-32 cells is due to calcium flux through N-type calcium channels. Intracellular calcium concentrations are measured using the fluorescent calcium indicator Indo-1. The effect of drug concentration on calcium uptake is studied.
The IMR-32 cell line was obtained from the American Type Culture Collection (Rockville, Md.). Cells were grown in Eagle's Minimum Essential Medium with Earle's salts supplemented with 10% fetal bovine serum, 2 mM L-Gln and antibiotic/antimycotic mixture (Gibco). […] After 7 to 13 days of differentiation, cells were detached using 0.5 mM EDTA and loaded with 5 μM Indo-1 acetoxymethyl ester (Molecular Probes, Eugene, Oreg.) at 30° C. for 45 minutes. Loaded cells were washed twice, resuspended (˜10^7 cells/mL) in assay buffer (10 mM HEPES/Tris pH 7.4 in Hank's Balanced Salt Solution without bicarbonate or phenol red containing 0.5% bovine serum albumin) and kept on ice until use. Fluorescence measurements were carried out in a Photon Technology International (PTI, South Brunswick, N.J.) Model RF-F3004 spectrofluorometer with dual emission monochromators using excitation at […] and emission at 400 and 490 nm. The instrument was equipped with a thermostated cuvette holder with stirring capabilities as well as with a computer-controlled pump which allowed for reagent addition during measurement. Instrument control and data collection was done by PTI's OSCAR software running on an IBM compatible computer. Different concentrations of the test compounds (60 μL in dimethyl sulfoxide) were added to 5.94 mL of assay buffer containing approximately 3×10^6 loaded cells, and 5 μM Nitrendipine (in […] EtOH) to block L-type Ca^2+ channels. Samples were incubated for 10 minutes at 30° C. and then aliquoted into three 10×10 mm disposable acrylic cuvettes. Emission signals at 400 and 490 nm were acquired from each cuvette at 30° C. for 50 seconds. At 20 seconds after the start of reading, cells were depolarized by the addition of 160 μL of stimulation solution (1 M KCl, 68 mM CaCl2) to the cuvette via the computer-controlled pump. Ratio of dual emission signals (400 nm/490 nm), which is proportional to intracellular Ca^2+ concentration, was plotted against time, and the difference between maximal response after stimulation and basal value (before stimulation) was determined. Values obtained in this way were plotted as a function of drug concentration. IC50 values of test compounds were calculated by fitting a four-parameter logistic function to the data using the least squares method.

T1 sequence (Q00975 whole entry): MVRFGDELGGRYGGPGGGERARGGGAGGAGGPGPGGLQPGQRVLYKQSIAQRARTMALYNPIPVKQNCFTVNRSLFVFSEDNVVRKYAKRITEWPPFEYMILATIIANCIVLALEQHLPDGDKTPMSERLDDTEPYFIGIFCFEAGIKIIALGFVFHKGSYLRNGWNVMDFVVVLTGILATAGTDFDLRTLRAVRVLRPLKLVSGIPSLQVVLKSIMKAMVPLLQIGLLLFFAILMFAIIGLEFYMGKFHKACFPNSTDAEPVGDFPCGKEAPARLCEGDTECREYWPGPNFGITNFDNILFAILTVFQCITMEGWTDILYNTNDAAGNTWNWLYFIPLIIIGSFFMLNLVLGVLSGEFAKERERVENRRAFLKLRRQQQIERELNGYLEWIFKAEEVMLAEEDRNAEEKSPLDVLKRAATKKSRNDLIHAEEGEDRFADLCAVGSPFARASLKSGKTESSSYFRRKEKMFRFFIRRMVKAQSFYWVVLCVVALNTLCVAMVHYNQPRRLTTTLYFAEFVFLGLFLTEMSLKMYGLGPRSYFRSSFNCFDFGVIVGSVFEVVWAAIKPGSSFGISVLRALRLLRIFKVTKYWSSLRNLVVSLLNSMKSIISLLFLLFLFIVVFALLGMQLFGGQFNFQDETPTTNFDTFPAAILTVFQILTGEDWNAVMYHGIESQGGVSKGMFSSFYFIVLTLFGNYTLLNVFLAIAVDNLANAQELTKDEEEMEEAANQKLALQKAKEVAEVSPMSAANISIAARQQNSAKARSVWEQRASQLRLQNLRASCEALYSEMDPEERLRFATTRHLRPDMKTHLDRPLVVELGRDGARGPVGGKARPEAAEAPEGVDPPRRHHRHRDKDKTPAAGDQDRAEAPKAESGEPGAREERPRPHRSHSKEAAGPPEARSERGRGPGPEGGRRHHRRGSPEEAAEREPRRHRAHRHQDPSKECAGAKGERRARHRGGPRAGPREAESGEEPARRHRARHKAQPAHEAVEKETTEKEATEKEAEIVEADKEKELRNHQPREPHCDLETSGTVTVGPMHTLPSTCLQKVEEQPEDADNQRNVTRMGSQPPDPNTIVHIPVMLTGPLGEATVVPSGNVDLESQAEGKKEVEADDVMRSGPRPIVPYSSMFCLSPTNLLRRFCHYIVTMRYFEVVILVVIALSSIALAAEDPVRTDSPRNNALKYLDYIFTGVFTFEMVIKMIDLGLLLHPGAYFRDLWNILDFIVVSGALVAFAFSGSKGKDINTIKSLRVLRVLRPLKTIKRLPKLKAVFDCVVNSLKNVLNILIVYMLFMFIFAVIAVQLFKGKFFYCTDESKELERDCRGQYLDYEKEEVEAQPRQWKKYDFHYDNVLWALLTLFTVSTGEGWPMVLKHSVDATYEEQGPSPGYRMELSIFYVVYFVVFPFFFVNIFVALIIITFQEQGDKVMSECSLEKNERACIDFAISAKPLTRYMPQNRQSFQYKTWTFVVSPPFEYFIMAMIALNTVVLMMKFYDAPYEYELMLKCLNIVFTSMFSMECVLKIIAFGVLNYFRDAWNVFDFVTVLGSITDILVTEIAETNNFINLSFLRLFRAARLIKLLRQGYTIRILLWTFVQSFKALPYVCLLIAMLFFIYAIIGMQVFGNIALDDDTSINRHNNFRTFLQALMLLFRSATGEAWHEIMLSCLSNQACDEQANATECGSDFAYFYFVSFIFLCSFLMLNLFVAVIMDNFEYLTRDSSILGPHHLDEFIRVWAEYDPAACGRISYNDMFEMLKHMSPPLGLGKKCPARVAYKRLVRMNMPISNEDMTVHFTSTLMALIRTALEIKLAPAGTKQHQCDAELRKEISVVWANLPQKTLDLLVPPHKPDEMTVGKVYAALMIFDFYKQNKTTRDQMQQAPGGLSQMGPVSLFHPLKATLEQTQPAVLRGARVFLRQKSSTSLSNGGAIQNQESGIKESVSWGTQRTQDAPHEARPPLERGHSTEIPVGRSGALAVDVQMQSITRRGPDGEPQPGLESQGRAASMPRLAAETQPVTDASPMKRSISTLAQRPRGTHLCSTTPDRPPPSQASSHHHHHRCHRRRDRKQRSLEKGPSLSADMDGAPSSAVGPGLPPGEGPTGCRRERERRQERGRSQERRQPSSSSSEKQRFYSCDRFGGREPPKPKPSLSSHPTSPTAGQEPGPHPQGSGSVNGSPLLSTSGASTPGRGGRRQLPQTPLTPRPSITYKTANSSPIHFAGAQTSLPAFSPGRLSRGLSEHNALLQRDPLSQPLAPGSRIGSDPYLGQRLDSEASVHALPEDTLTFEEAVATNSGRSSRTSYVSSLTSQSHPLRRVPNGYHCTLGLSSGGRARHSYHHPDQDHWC
T1 sequence (P54289 25-956 partner limits assumed): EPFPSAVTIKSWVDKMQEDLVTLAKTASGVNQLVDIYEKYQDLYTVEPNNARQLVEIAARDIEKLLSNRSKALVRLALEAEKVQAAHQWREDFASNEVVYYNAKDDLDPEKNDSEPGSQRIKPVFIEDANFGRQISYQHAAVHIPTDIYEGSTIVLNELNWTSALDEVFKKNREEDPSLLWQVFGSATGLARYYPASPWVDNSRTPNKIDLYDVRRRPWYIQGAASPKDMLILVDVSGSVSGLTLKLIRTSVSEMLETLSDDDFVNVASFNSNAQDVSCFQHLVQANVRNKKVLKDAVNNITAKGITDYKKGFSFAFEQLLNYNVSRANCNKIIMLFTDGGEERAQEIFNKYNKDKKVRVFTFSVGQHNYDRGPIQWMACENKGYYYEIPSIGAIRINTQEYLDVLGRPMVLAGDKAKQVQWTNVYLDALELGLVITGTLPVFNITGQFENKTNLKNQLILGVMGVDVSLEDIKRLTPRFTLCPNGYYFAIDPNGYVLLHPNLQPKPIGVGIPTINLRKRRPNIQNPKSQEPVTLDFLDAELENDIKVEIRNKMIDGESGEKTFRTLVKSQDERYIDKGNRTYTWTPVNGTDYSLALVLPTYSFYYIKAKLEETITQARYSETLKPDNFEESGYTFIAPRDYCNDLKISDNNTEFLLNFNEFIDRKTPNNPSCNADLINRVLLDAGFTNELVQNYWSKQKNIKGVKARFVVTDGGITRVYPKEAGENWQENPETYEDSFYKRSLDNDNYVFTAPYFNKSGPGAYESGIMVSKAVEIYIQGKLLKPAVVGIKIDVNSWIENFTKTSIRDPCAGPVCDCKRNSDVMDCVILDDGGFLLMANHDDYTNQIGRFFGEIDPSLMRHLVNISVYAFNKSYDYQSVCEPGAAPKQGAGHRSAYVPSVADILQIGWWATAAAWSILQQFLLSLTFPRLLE
T1 sequence (P54289 957-1103 partner limits assumed): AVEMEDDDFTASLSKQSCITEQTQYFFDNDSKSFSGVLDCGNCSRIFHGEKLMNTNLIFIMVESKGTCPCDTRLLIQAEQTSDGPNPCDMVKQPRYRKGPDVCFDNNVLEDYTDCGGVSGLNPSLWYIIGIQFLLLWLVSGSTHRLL
T1 sequence (Q02641 whole entry partner): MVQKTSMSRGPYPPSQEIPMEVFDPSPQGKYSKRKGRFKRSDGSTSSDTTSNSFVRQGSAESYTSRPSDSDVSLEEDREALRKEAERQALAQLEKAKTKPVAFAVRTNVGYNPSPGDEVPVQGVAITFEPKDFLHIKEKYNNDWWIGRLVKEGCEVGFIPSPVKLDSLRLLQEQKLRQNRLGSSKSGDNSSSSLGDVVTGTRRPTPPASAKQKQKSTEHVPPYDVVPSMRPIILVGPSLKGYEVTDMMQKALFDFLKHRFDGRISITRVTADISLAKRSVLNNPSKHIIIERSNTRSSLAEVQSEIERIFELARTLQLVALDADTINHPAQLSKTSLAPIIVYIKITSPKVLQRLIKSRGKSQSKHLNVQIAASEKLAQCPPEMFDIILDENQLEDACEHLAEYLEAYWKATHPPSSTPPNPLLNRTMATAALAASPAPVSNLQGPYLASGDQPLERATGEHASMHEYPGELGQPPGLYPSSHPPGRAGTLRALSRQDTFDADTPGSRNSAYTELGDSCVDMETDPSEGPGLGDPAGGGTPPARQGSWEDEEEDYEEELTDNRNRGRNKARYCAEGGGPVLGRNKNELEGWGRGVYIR

For the compound `CC(C)=CCN(CC(C)(C)NC(=O)[C@H](CC(C)C)NC(=O)N1CCCCCC1)c1ccc(OCc2ccccc2)cc1` [Example 1], in the assay on DBA/2 mice, the responders at 30 mg/kg was found to be 60%. The same compound returned a half-maximal inhibitory concentration (IC50) on N-type Ca2+ channel of 0.26 µM. As to `CC(C)=CCN(CC(C)(C)NC(=O)[C@H](CC(C)C)N(C)CC=C(C)C)c1ccc(OCc2ccccc2)cc1` [Example 10, (S)-4-Methyl-2-[methyl-(3-methyl-but-2-enyl)-amino]-pentanoic acid {2-[(4-benzyloxy-phenyl)-(3-methyl-but-2-enyl)-amino]-1,1-dimethyl-ethyl}-amide], in the assay on DBA/2 mice, the responders at 30 mg/kg was found to be 80%. Moreover, on N-type Ca2+ channel, the inhibition at 1 µM came to 54% and the inhibition at 10 µM was 82%. Take `CC(C)=CCN(c1ccc(OCc2ccccc2)cc1)C1CCN(C(=O)[C@@H](N)CC(C)C)CC1` [Example 20, (S)-2-Amino-1-{4-[(4-benzyloxy-phenyl)-(3-methyl-but-2-enyl)-amino]-piperidin-1-yl}-4-methyl-pentan-1-one]: the responders at 10 mg/kg with DBA/2 mice came out at 100%. This compound returned an IC50 against N-type Ca2+ channel of 2.4 µM. On to `CCC(C)[C@H](N)C(=O)N1CCC(N(CC=C(C)C)c2ccc(OCc3ccccc3)cc2)CC1` (stereo partly drawn) [Example 22, (S)-2-Amino-1-{4-[(4-benzyloxy-phenyl)-(3-methyl-but-2-enyl)-amino]-piperidin-1-yl}-3-methyl-pentan-1-one], for which the responders at 10 mg/kg in the assay with DBA/2 mice came out at 100%. Besides, on N-type Ca2+ channel, the inhibition at 1 µM amounted to 39% and the inhibition at 10 µM came out at 90%. `CC(C)=CCN(c1ccc(OCc2ccccc2)cc1)C1CCN(C(=O)[C@H](CC(C)C)N(C)C)CC1` [Example 23, (S)-1-{4-[(4-Benzyloxy-phenyl)-(3-methyl-but-2-enyl)-amino]-piperidin-1-yl}-2-dimethylamino-4-methyl-pentan-1-one]: the responders at 10 mg/kg with DBA/2 mice worked out at 40%. This compound registered an IC50 on N-type Ca2+ channel of 0.65 µM.

For `CC(C)=CCN(c1ccc(OCc2ccccc2)cc1)C1CCN(C(=O)[C@H](CC(C)C)NCCC(C)C)CC1` [Example 25, (S)-1-{4-[(4-Benzyloxy-phenyl)-(3-methyl-but-2-enyl)-amino]-piperidin-1-yl}-4-methyl-2-(3-methyl-butylamino)-pentan-1-one], in the assay with DBA/2 mice, the responders at 30 mg/kg was 80%. Moreover, half-maximal inhibition against N-type Ca2+ channel (IC50) required 0.48 µM. `CC(C)=CCN(c1ccc(OCc2ccccc2)cc1)C1CCN(C(=O)[C@H](CC(C)C)NCc2ccc[nH]2)CC1` [Example 27, (S)-1-{4-[(4-Benzyloxy-phenyl)-(3-methyl-but-2-enyl)-amino]-piperidin-1-yl}-4-methyl-2-[(1H-pyrrol-2-ylmethyl)-amino]-pentan-1-one] came in with a half-inhibitory concentration (IC50) against N-type Ca2+ channel of 0.39 µM.

As to `CC(C)C[C@H](NC(=O)N1CCCCCC1)C(=O)N1CCC(Nc2ccc(OCc3ccccc3)cc2)CC1` [Example 28, (S)-Azepane-1-carboxylic acid {1-[4-(4-benzyloxy-phenylamino)-piperidine-1-carbonyl]-3-methyl-butyl}-amide], half-maximal inhibition on N-type Ca2+ channel (IC50) was put at 2.5 µM. The same measure, in the same setting: as for `CCN(c1ccc(OCc2ccccc2)cc1)C1CCN(C(=O)[C@H](CC(C)C)NC(=O)N2CCCCCC2)CC1` [Example 30, (S)-Azepane-1-carboxylic acid (1-{4-[(4-benzyloxy-phenyl)-ethyl-amino]-piperidine-1-carbonyl}-3-methyl-butyl)-amide], the figure is 0.83 µM; as for `CC(C)C[C@H](NC(=O)N1CCCCCC1)C(=O)N1CCC(N(Cc2ccccc2)c2ccc(OCc3ccccc3)cc2)CC1` [Example 31, (S)-Azepane-1-carboxylic acid (1-{4-[benzyl-(4-benzyloxy-phenyl)-amino]-piperidine-1-carbonyl}-3-methyl-butyl)-amide], 0.43 µM.

In the case of `CC(C)CC(NC(=O)N1CCCCCC1)C(=O)N1CCC(N(CCC(C)O)c2ccc(OCc3ccccc3)cc2)CC1` (centres unmarked) [Example 32, Azepane-1-carboxylic acid (1-{4-[(4-benzyloxy-phenyl)-(3-hydroxy-butyl)-amino]-piperidine-1-carbonyl}-3-methyl-butyl)-amide], the responders at 30 mg/kg in the assay with DBA/2 mice worked out at 60%. In addition, the IC50 against N-type Ca2+ channel is 4.6 µM. Consider `CC(C)=CCN(c1ccc(NC(=O)OCc2ccccc2)cc1)C1CCN(C(=O)[C@H](CC(C)C)NC(=O)N2CCCCCC2)CC1` [Example 33, (S)-{4-[(1-{2-[(Azepane-1-carbonyl)-amino]-4-methyl-pentanoyl}-piperidin-4-yl)-(3-methyl-but-2-enyl)-amino]-phenyl}-carbamic acid benzyl ester], for which inhibition against N-type Ca2+ channel was half-maximal at 0.17 µM (IC50). Regarding `CC(C)CCN(c1ccc(NC(=O)OCc2ccccc2)cc1)C1CCN(C(=O)[C@H](CC(C)C)NC(=O)N2CCCCCC2)CC1` [Example 34, (S)-{4-[(1-{2-[(Azepane-1-carbonyl)-amino]-4-methyl-pentanoyl}-piperidin-4-yl)-(3-methyl-butyl)-amino]-phenyl}-carbamic acid benzyl ester], on N-type Ca2+ channel, the inhibition at 1 µM came to 83%. For the compound `CC(C)CCN(c1ccc(N)cc1)C1CCN(C(=O)[C@H](CC(C)C)NC(=O)N2CCCCCC2)CC1` [Example 35, (S)-Azepane-1-carboxylic acid (1-{4-[(4-amino-phenyl)-(3-methyl-butyl)-amino]-piperidine-1-carbonyl}-3-methyl-butyl)-amide], the responders at 30 mg/kg in the assay on DBA/2 mice is 20%. At N-type Ca2+ channel, the concentration for half-maximal inhibition (IC50) was 2.2 µM.

Regarding `CC(C)CCN(c1ccc(NCCC(C)(C)C)cc1)C1CCN(C(=O)[C@H](CC(C)C)NC(=O)N2CCCCCC2)CC1` [Example 36, (S)-Azepane-1-carboxylic acid (1-{4-[[4-(3,3-dimethyl-butylamino)-phenyl]-(3-methyl-butyl)-amino]-piperidine-1-carbonyl}-3-methyl-butyl)-amide], the responders at 30 mg/kg in the assay with DBA/2 mice is 80%. Half-maximal inhibition at N-type Ca2+ channel (IC50) required 0.18 µM. Take `CC(C)CCN(c1ccc(NCC2CCCCC2)cc1)C1CCN(C(=O)[C@H](CC(C)C)NC(=O)N2CCCCCC2)CC1` [Example 37, (S)-Azepane-1-carboxylic acid (1-{4-[[4-(Cyclohexylmethyl-amino)-phenyl]-(3-methyl-butyl)-amino]-piperidine-1-carbonyl}-3-methyl-butyl)-amide]: the midpoint of inhibition against N-type Ca2+ channel, the IC50, lay at 0.29 µM.

Turning to `CC(C)CCN(c1ccc(NCc2ccccc2)cc1)C1CCN(C(=O)[C@H](CC(C)C)NC(=O)N2CCCCCC2)CC1` [Example 39, (S)-Azepane-1-carboxylic acid (1-{4-[(4-benzylamino-phenyl)-(3-methyl-butyl)-amino]-piperidine-1-carbonyl}-3-methyl-butyl)-amide], the concentration for half-maximal inhibition (IC50) against N-type Ca2+ channel came to 0.4 µM. The same measure, in the same setting: as for `CC(C)CCN(c1ccc(NCc2ccccn2)cc1)C1CCN(C(=O)[C@H](CC(C)C)NC(=O)N2CCCCCC2)CC1` [Example 40], the figure is 1.1 µM.
